Columns and labels:
Assay type in all cases: biochemical
Lck = molecular target: T1, Lck (Homo sapiens, UniProt P06239); experiment: Kinase inhibition assay (33P transfer), Lck; details: Table 3; read-out: Lck-1
T1 construct: Kinases are expressed as either kinase domains or full length constructs; made in house
Procedure, shortened: (§1)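 33P-ATP transfer to coated synthetic polymer substrates; acid wash (0.5% H3PO4), scintillant, liquid scintillation count. Enzymes: His- or GST-fusion kinases from E. coli or High Five insect cells.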

Src = molecular target: T2, Src (Homo sapiens, UniProt P12931); experiment: Kinase inhibition assay (33P transfer), Src; details: Table 6, Src-1 kinase inhibition class
T2 construct: Kinases are expressed as either kinase domains or full length constructs; made in house
T2 sequence (P12931 whole entry, species assumed, the tested form may be a part): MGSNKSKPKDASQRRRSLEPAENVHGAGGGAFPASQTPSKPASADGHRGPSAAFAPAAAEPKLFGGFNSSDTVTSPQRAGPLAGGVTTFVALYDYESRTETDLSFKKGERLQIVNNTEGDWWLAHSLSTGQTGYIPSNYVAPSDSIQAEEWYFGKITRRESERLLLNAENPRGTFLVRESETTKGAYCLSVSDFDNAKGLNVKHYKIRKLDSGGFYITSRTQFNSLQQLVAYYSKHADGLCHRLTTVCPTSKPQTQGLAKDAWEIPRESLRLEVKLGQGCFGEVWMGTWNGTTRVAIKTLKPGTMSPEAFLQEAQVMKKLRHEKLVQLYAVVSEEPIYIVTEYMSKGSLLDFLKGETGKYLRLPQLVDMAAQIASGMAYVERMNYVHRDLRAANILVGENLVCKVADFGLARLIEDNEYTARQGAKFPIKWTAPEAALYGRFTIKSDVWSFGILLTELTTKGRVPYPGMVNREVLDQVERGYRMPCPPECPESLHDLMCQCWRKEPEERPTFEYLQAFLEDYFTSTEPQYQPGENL
Procedure, shortened: (§2)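 Read-out: scintillation counts of 33P moved from ATP onto synthetic peptide polymer coated on the well surface, after washing with 0.5% phosphoric acid. Enzymes were tagged (GST or polyHistidine) and came from bacterial or insect-cell expression. IC50 marks 50% loss of incorporated label.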

Zap-70 = molecular target: T3, Zap-70 (Homo sapiens, UniProt P43403); experiment: Kinase inhibition assay (33P transfer), Zap-70; details: Table 3; read-out: Zap-1
T3 construct: Kinases are expressed as either kinase domains or full length constructs; made in house
T3 sequence (P43403 1-619): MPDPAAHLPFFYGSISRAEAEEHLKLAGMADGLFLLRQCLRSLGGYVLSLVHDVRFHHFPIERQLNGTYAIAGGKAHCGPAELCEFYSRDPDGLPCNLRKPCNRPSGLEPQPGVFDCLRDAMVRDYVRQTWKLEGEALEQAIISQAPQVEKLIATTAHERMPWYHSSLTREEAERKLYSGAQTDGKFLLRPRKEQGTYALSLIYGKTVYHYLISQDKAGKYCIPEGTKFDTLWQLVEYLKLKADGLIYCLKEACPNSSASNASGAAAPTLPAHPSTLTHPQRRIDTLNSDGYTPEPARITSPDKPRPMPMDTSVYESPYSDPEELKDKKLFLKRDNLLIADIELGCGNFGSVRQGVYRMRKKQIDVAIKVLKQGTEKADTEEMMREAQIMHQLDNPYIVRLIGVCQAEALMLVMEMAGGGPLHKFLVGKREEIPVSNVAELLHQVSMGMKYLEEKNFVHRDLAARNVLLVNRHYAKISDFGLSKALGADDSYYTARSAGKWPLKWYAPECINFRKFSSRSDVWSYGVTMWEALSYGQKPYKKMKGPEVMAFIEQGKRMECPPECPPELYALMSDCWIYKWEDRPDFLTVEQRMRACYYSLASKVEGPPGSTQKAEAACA
Procedure, shortened: as §1

EGFR = molecular target: T4, EGFR (Homo sapiens, UniProt P00533); experiment: Kinase inhibition assay (33P transfer), EGFR; details: Table 2, kinase inhibition class; read-out: EGFR-1
T4 construct: Kinases are expressed as either kinase domains or full length constructs; made in house
T4 sequence (P00533 25-1210, species assumed): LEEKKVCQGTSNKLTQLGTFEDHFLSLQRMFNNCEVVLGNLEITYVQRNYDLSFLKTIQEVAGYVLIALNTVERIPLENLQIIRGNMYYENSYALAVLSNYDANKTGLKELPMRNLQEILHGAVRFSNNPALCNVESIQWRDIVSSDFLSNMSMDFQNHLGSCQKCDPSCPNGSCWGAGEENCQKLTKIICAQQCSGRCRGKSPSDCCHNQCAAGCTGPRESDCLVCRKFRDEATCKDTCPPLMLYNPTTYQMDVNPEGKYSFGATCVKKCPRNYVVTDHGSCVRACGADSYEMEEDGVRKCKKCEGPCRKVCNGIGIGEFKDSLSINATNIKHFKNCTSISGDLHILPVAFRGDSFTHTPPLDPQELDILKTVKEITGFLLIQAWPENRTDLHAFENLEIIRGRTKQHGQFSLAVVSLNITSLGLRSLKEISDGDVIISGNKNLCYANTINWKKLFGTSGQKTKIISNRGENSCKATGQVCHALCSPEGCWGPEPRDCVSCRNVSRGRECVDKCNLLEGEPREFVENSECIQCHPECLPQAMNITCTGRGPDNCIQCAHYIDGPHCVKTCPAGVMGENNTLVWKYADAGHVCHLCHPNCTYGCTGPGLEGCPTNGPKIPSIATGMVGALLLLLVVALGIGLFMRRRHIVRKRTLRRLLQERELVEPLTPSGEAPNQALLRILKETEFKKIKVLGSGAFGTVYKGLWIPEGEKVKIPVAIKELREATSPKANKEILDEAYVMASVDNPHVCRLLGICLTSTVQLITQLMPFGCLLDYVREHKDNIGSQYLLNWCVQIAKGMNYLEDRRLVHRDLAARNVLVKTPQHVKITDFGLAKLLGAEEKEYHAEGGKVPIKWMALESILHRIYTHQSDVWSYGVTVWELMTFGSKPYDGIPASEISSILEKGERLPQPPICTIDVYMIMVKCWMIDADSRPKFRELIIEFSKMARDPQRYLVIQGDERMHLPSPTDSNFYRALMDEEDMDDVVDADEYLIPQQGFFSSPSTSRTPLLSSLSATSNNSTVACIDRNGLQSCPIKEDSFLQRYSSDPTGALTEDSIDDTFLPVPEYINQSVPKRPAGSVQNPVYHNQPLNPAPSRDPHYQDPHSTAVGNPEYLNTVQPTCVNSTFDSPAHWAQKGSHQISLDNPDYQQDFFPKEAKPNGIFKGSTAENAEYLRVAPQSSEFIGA
Procedure, shortened: as §2

AKT = molecular target: T5, AKT (Homo sapiens, UniProt Q9Y243); experiment: Kinase inhibition assay (33P transfer), AKT; details: Table 2, kinase inhibition class; read-out: AKT3-1
T5 construct: Kinases are expressed as either kinase domains or full length constructs; made in house
Procedure, shortened: as §1

IGFR-1 = molecular target: T6, IGFR-1 (Homo sapiens, UniProt P08069); experiment: Kinase inhibition assay (33P transfer), IGFR-1; details: Table 2, kinase inhibition class
T6 construct: Kinases are expressed as either kinase domains or full length constructs; made in house
T6 sequence (P08069 31-1367): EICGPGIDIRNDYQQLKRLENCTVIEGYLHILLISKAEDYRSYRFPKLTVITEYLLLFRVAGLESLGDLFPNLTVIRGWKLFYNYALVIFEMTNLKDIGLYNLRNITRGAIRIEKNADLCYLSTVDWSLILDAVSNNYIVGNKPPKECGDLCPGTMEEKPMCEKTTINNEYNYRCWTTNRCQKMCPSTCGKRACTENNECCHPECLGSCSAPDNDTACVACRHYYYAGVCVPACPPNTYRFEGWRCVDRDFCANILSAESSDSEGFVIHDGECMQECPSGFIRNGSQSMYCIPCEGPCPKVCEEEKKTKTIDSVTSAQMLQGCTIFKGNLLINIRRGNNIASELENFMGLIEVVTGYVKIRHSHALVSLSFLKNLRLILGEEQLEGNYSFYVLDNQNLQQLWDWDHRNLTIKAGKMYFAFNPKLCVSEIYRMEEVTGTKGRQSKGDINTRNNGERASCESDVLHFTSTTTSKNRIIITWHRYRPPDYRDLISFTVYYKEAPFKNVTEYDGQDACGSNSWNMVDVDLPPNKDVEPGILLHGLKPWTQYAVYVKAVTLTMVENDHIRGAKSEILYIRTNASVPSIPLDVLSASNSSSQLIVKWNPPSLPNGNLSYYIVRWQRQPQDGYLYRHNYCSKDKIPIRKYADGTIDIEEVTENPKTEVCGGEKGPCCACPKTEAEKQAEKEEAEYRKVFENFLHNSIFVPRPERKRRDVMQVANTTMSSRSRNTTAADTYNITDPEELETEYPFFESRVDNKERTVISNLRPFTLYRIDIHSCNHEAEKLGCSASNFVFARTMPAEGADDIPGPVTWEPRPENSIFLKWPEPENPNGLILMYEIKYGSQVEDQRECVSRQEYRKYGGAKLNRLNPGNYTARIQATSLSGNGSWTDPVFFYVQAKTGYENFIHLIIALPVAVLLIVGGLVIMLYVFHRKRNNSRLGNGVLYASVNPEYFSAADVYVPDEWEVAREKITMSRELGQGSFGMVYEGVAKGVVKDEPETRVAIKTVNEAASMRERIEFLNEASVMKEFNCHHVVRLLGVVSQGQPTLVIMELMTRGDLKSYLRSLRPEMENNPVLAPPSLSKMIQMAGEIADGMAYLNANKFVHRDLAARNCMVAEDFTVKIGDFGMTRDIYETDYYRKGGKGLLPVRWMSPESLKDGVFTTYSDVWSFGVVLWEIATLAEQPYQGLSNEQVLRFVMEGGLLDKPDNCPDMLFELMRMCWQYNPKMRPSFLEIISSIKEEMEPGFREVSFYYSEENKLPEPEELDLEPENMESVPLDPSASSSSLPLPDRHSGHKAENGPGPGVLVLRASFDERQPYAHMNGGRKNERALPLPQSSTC

EPHB4 = molecular target: T7, EPHB4 (Homo sapiens, UniProt P54760); experiment: Kinase inhibition assay (33P transfer), EPHB4; details: read-out: EPHB4-1
T7 construct: Kinases are expressed as either kinase domains or full length constructs; made in house
T7 sequence (P54760 16-987): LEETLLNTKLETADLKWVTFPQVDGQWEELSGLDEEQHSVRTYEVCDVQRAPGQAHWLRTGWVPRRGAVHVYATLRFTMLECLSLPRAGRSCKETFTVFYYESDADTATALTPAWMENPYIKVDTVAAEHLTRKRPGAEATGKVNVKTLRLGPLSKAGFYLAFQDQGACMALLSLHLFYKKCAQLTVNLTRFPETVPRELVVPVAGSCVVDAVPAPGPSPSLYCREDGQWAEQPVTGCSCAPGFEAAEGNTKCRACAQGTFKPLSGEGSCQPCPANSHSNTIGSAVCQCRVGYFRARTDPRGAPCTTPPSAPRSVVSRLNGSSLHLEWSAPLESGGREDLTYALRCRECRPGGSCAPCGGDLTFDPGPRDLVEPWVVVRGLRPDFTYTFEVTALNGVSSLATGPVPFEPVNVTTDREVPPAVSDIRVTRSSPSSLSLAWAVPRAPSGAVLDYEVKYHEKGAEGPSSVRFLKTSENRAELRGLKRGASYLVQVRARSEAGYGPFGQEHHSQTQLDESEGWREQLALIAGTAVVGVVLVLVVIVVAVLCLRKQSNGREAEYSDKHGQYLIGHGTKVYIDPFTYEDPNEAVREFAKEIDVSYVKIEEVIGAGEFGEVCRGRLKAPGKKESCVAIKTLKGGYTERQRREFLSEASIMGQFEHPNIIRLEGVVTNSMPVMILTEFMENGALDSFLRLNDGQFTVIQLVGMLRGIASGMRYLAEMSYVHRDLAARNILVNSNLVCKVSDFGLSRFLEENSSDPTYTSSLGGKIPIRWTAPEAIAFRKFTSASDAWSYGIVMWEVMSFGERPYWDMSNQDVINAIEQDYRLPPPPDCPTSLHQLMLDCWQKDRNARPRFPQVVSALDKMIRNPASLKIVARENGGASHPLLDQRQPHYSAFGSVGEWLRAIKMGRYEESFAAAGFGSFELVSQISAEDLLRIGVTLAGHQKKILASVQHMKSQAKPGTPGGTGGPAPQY

ErbB4 = molecular target: T8, ErbB4 (Homo sapiens, UniProt Q15303); experiment: Kinase inhibition assay (33P transfer), ErbB4; details: read-out: ErbB4-1
T8 construct: Kinases are expressed as either kinase domains or full length constructs; made in house
T8 sequence (Q15303 26-1308, species assumed): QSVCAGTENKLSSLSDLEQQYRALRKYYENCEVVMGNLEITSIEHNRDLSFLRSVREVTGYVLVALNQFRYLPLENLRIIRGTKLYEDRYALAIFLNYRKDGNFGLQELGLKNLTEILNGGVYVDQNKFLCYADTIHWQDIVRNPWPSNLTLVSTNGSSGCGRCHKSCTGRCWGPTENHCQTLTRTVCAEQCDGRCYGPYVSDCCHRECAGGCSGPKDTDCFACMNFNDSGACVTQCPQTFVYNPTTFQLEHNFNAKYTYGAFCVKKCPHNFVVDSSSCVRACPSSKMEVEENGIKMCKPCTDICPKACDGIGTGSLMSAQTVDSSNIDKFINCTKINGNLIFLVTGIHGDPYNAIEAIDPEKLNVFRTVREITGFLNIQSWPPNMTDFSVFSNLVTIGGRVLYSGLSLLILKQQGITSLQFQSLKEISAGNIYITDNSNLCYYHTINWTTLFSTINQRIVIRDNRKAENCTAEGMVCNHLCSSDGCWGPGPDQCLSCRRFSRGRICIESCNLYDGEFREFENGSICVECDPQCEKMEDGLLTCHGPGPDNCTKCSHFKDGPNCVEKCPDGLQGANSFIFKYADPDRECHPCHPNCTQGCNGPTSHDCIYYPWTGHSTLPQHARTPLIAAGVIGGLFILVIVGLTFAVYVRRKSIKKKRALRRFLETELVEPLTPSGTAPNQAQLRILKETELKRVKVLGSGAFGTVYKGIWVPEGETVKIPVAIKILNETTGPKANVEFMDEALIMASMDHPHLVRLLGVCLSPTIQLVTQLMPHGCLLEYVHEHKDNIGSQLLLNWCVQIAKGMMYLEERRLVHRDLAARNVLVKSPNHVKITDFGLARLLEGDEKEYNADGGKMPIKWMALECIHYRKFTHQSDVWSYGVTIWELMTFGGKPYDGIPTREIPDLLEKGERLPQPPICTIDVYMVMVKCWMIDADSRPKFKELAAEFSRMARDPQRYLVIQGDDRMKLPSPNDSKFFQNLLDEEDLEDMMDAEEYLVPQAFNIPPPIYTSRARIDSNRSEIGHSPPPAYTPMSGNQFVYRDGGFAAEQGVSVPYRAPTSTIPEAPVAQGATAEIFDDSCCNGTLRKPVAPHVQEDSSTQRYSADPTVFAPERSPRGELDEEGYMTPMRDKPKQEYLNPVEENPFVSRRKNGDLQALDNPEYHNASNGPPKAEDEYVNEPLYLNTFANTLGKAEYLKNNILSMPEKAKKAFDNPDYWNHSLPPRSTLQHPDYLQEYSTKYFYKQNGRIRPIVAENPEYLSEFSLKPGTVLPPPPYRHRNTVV

T1 sequence (P06239 whole entry, species assumed, the tested form may be a part): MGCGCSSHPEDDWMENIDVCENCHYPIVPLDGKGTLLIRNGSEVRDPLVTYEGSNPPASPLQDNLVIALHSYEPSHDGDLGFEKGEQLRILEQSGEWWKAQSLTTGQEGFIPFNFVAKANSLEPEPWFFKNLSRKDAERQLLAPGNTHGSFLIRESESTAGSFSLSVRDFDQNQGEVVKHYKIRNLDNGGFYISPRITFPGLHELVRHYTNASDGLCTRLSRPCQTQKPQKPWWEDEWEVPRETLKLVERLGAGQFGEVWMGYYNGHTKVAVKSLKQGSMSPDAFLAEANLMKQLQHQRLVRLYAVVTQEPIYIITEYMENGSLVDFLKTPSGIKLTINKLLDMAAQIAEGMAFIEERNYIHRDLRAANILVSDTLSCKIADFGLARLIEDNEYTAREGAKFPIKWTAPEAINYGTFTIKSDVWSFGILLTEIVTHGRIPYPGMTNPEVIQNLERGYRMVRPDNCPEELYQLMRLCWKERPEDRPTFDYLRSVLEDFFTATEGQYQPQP

IC50 (Lck) [µM]	IC50 (Src) [µM]	IC50 (Zap-70) [µM]	IC50 (EGFR) [µM]	IC50 (AKT) [µM]	IC50 (IGFR-1) [µM]	IC50 (EPHB4) [µM]	IC50 (ErbB4) [µM]	Compound
< 1.02	< 1.02	> 11.4	< 1.02	> 11.4	< 1.02	< 1.02	1.02 to 6.1	COc1cc(Nc2ncnc(Nc3ccc4[nH]ncc4c3)n2)cc(OC)c1OC [Compound 79]
0.97 to 5.82	> 10.9	> 10.9	> 10.9	> 10.9	> 10.9	> 10.9	> 10.9	COc1cc(Nc2ncnc(-c3ccnc(NCCCO)c3)n2)cc(OC)c1OC [Compound 180]
1.05 to 6.33	1.05 to 6.33	1.05 to 6.33	1.05 to 6.33	6.33 to 9.23	< 1.05	1.05 to 6.33	6.33 to 9.23	COc1cc(Nc2ncnc(Nc3cc(-c4ccco4)n[nH]3)n2)cc(OC)c1 [Compound 365]
0.827 to 4.96	0.827 to 4.96	> 9.31	4.96 to 7.24	> 9.31	> 9.31	< 0.827	> 9.31	COc1cc(Nc2ncnc(-n3c(NCc4ccccc4)nc4ccccc43)n2)cc(OC)c1OC [Compound 371]
